Results published in patent US20090104128A1, “Denture adhesive compositions with anti-ucler agents” (Orahealth Corporation, priority 2007, published 2009).

Tested on: mouth ulcers
Experiment: tests of cobalamin forms for treatment of mouth ulcers
Assay type: in vivo
Conditions: compared with other cobalamin forms (cyanocobalamin, hydroxocobalamin); tests not described

C/C1=C2/[N-][C@H]([C@H](CC(N)=O)[C@@]2(C)CCC(=O)NC[C@@H](C)OP(=O)([O-])O[C@H]2[C@@H](O)[C@@H](n3cnc4cc(C)c(C)cc43)O[C@@H]2CO)[C@]2(C)N=C(/C(C)=C3N=C(/C=C4N=C1[C@@H](CCC(N)=O)C\4(C)C)[C@@H](CCC(N)=O)[C@]\3(C)CC(N)=O)[C@@H](CCC(N)=O)[C@]2(C)CC(N)=O.[CH3-].[Co+3] [Methylcobalamin, methylcobalamin]
treatment of mouth ulcers: superior
